Patent US20110218143A1, “COMPOSITIONS AND METHODS FOR TISSUE REPAIR” (UNIVERSITY OF FLORIDA RESEARCH FOUNDATION, priority 2007, published 2011)
Entries after “also recorded” stand apart in the source; their conditions may differ.

What was measured:
[1] = tested on: cytokine production in mouse blood; test: Cytokine/chemokine levels in blood serum (Millipore 21-Plex, Luminex); assay type: in vivo, C57BL6/J mice
Procedure: Mice received either a placebo, celastrol (3.0 mg/kg), or 17-AAG (10 mg/kg) by intraperitoneal injection. Blood samples were taken from all groups of mice at 0, 1, 3, 6, 24, 48, and 72 hours after administration of the placebo, celastrol, or 17-AAG. The blood samples were analyzed for cytokine production, including the production of granulocyte-macrophage colony-stimulating factor (GM-CSF), interferon-gamma (IFN-γ), interleukin-10 (IL-10), interleukin-12 subunit beta (IL-12p40), interleukin-12 heterodimer (IL-12p70), interleukin-12 homodimer (IL-12p80), vascular endothelial growth factor (VEGF), tumor necrosis factor-alpha (TNF-α), keratinocyte derived chemokine (KC), RANTES (Regulated upon Activation, Normal T-cell Expressed, and Secreted; CCL5), monocyte chemotactic protein-1 (MCP 1), macrophage inflammatory protein (MIP1β; CCL4), interleukin-4 (IL-4), interleukin-3 (IL-3), interleukin-2 (IL-2), interleukin-1 beta (IL-1β), interleukin-1 alpha (IL-1α), interleukin-9 (IL-9), interleukin-13 (IL-13), interleukin-17 (IL-17), interleukin-6 (IL-6), and interleukin-5 (IL-5). Blood serum was analyzed using a commercially available kit (e.g., Mouse cytokine/chemokine panel: 21-Plex; Millipore). Blood serum (50 μl) was assayed in duplicate using a commercially available cytokine/chemokine detection kit from Millipore following the protocol given with the product information. The final measurement was performed using a commercially available detector (e.g., computer-operated Luminex 100 IS system) and the results were expressed as pg/ml blood serum sample. Levels of cytokines in blood were quantitated as a concentration of the total volume of the sample.

[2] = tested on: mice with STZ induced diabetes; test: Blood glucose in streptozotocin (STZ) induced diabetes model; assay type: in vivo, C57BL6/J mice; settings: STZ 50 mg/kg i.p.; celastrol 2.5 mg/kg by injection from day -2, three times per week; monitored 30 days
Procedure: The administration of streptozotocin to induce pancreatic cell death is a well-known model of diabetes, see for example, Like and Rossini, “Streptozotocin-induced pancreatic insulitis: new model of diabetes mellitus.” Science. Jul. 30, 1976; 193(4251):415-7. Fasting C57BL6/J mice received 50 mg/kg streptozotocin (STZ) by intraperitoneal injection at day 0. Two days prior to (−2 day) and concurrently with STZ injection half of the mice also received celastrol by injection (2.5 mg/kg). Celastrol injections continued three times per week throughout the experiment. Blood glucose levels were monitored for 30 days after treatment (FIG. 9). […] In mice, normoglycemia is typically less than 200 mg/dL blood glucose.

[3] = tested on: mice with STZ induced diabetes; test: Glucose challenge test in STZ mice; assay type: in vivo, C57BL6/J mice; settings: 1 g glucose/kg, monitored up to 5 hours, placebo mice at or above 400 mg/dl between 0.5 and 2 hours
Procedure: STZ was administered to C57BL6/J mice as described above to induce diabetes. Groups of C57BL6/J mice that received either STZ and placebo or STZ and celastrol were then subjected to a glucose challenge test to assay glucose metabolism. STZ mice received 1 g glucose/kg. Blood glucose levels were monitored for up to 5 hours following administration of glucose. […] Blood glucose levels never reached these levels in STZ mice treated with celastrol. In fact, mice treated with celastrol were better able to metabolize glucose than STZ mice that received placebo (FIG. 10).

[4] = tested on: mice with ALF induced by TAA; test: Survival in TAA induced acute liver failure; assay type: in vivo, C57BL6/J mice; settings: TAA 1000 mg/kg and celastrol 3 mg/kg i.p.; examined 3 days or longer; TAA alone 100% mortality
Procedure: Thiomacetamide (TAA) was administered to C57BL6/J mice to induce liver damage. Groups of at least 6 C57BL6/J mice received either TAA (1000 mg/kg) and a placebo, TAA (1000 mg/kg) and celastrol (3 mg/kg), or placebo only by intraperitoneal injection. Mice were examined for 3 days or longer to determine survival (FIG. 12).

NOD mice = test: Blood glucose / diabetes incidence in NOD mouse model; assay type: in vivo
Procedure: The NOD mouse is recognized as a model for human Type1 diabetes (Anderson and Bluestone, “THE NOD MOUSE: A Model of Immune Dysregulation” Annual Review of Immunology 23: 447-485, 2005, which is incorporated by reference in its entirety). Celastrol was administered to the mice at the rate of 3.0 mg/kg body weight via intra-peritoneal injection once a week in NOD mice starting from 4 weeks of age. When mice attained 11 weeks of age, the compound was administered at the rate of 3.3 mg/kg body weight via oral gavage three times a week up to 30 weeks of age. Blood glucose levels were measured at the time of celastrol administration once a week from 4-10 weeks and three times a week from 11-30 weeks. Mice in control group were treated with placebo.

[5] = tested on: irradiated wild type mice, C57BL/6; test: Secondary adaptive transfer of bone marrow cells into irradiated wild type mice; assay type: in vivo, C57BL/6 mice; settings: bone marrow cells from celastrol treated primary adaptive transfer group, 1.5×10^6 cells per mouse; at 7 weeks; control group died within 10 days
Description: Wild type mice that survived the primary transfer were used for secondary transfer. Bone marrow cells obtained from these mice were collected and transferred into irradiated wild type mice, C57BL/6 at 1.5×10^6 cells per mouse.

[6] = celastrol 3.0 mg/kg i.p., over the course of the experiment
[7] = celastrol 3.0 mg/kg i.p., throughout the 72 hour time course
[8] = i.p. celastrol 3.0 mg/kg or 17-AAG 10 mg/kg, 72 hour time course
[9] = i.p. celastrol 3.0 mg/kg or 17-AAG 10 mg/kg, sampled 0-72 h
[10] = i.p. celastrol 3.0 mg/kg or 17-AAG 10 mg/kg, sampled 0-72 h, vs placebo control

`CC1=C(O)C(=O)C=C2C1=CC=C1[C@@]2(C)CC[C@@]2(C)[C@@H]3C[C@](C)(C(=O)O)CC[C@]3(C)CC[C@]12C` [celastrol] was tested, and the “level of GM-CSF compared to placebo control” value ([1]; celastrol 3.0 mg/kg i.p., 72 hour time course) was “elevated again between 24 and 48 hours; also recorded: elevated again 6 to 48 hours”, the “level of IL-9 compared to placebo control” value ([1]; celastrol 3.0 mg/kg i.p., after peak) was “remained slightly elevated up to 72 hours” and the “level of IL-6 compared to placebo control” value [1, 6] was “not significantly different”. The “level of RANTES compared to placebo control” value [1, 6] was “not significantly different”, the “level of IL-2 compared to placebo control” value [1, 7] was “slightly elevated” and the “level of VEGF compared to placebo control” value [1, 7] was “slightly elevated”. The “level of IL-1α compared to placebo control” value ([1]; celastrol 3.0 mg/kg i.p., throughout the experiment) was “slightly decreased”, the “level of IL-13 compared to placebo control” value ([1]; celastrol 3.0 mg/kg i.p., up to 48 hours post treatment, risen again by 72 hours) was “slightly elevated” and the “level of IL-17 compared to placebo control” value ([1]; i.p. celastrol 3.0 mg/kg (throughout 72 hours) or 17-AAG 10 mg/kg (up to 48 hours)) was “slightly elevated”. The “level of IFN-γ compared to placebo control” value [1, 8] was “slightly elevated”, the “level of IL-5 compared to placebo control” value [1, 8] was “not significantly different” and the “level of IL-12p40 compared to placebo control” value [1, 8] was “slightly elevated”. The “time by which GM-CSF (elevated pre treatment) declined to placebo control levels” value [1, 9] was at most 6 h, the “time by which IL-3 (slightly elevated pre treatment) declined to placebo control levels” value [1, 9] was at most 1 h and the “time by which IL-4 (slightly elevated pre treatment) declined to placebo control levels” value [1, 9] was at most 1 h. For the same molecule, the “time by which MIP1β returned or declined to placebo control levels” value [1, 9] was at most 6 h, the “time by which TNF-α (elevated pre treatment) declined to placebo control levels” value [1, 9] was at most 6 h and the “time of peak level of IL-9 post treatment” value [1, 10] was “around 3 hours”. For the same molecule, the “time of peak level of KC post treatment” value [1, 10] was “around 6 hours”, the “blood glucose levels in STZ mice relative to STZ mice injected with saline placebo” value [2] was “substantially lower; also recorded: normoglycemia” and the “blood glucose levels after glucose challenge” value [3] was under 400 mg/dL. The survival [4] was 71.4%, the “mice that became hyperglycemic (more than 250 mg/dL)” value (NOD mice; celastrol 3.0 mg/kg i.p. once a week from 4 weeks, 3.3 mg/kg oral gavage three times a week from 11 to 30 weeks of age, at 23 weeks of age) was “twenty” and the “mice euglycemic or normoglycemic (less than 250 mg/dL)” value (NOD mice; same regimen, up to 30 weeks of age) was “Eighty”. The “mice still surviving secondary transfer” value [5] was 85.7%.
